Source: patent US20230314454A1, “BLOOD COAGULATION TEST REAGENT, AND BLOOD COAGULATION TEST METHOD” (Thrombo Translational Research Lab Inc., priority 2020, published 2023)

What was measured:
[1] = test system: thrombin generation in plasma; experiment: Thrombin generation in plasma over time after taking apixaban; type: in vivo, human; details: patients #004 and #005, 10 mg apixaban taken
Description: (§1) In test, plasma specimens were prepared by centrifugation of blood that was collected using an anticoagulant citric acid. The plasma specimens were frozen at −80° C. until the test starts, and thawed at 37° C. immediately before the test, and used.
The thrombin generation initiation reagent was prepared by mixing the following reagents. […]
(§2) To quantify the generated thrombin, the thrombin detection reagent containing EDTA, which was a reaction stopping reagent, was then added to the plasma, followed by incubation at 37° C. for 1 minute. Since thrombin hydrolyzed the thrombin fluorogenic substrate to emit fluorescence during the incubation, the fluorescence intensity was measured using a fluorescence plate reader (excitation wavelength: 355 nm, fluorescence wavelength: 460 nm). The measured fluorescence intensity was converted into the thrombin concentration based on a standard curve constructed using a thrombin standard substance (Technothrombin TGA calibrator, purchased from Cosmo Bio Co., Ltd.). The thrombin generation in the plasma was expressed as a relative ratio (%) with respect to the thrombin generation in control plasma (Siemens control plasma N for blood coagulation test, purchased from SYSMEX CORPORATION). […]

[2] = test system: thrombin generation in patient plasma; experiment: Thrombin generation test (TF/FXIa initiation reagent), apixaban spiked into patient plasma; type: biochemical, human
Description: as §1
(§3) The thrombin generation initiation reagent was prepared by mixing the following reagents. The thrombin formation initiation reagent was appropriately diluted with 50 mM tris buffer solution containing 0.5% bovine serum albumin (purchased from FUJIFILM Wako Pure Chemical Corporation) and 0.15 M sodium chloride (purchased from FUJIFILM Wako Pure Chemical Corporation) (BSA/TBS, pH 7.4). • Human TF (Dade Innovin, purchased from SYSMEX CORPORATION) solution • Human FXIa (purchased from Funakoshi Co., Ltd.) solution • Synthetic phospholipids (purchased from Haematex) solution • Calcium chloride (purchased from FUJIFILM Wako Pure Chemical Corporation) solution […]
To quantify the generated thrombin, the thrombin detection reagent containing EDTA, which was a reaction stopping reagent, was then added to the plasma, followed by incubation at 37° C. for 1 minute. Since thrombin hydrolyzed the thrombin fluorogenic substrate to emit fluorescence during the incubation, the fluorescence intensity was measured using a fluorescence plate reader (excitation wavelength: 355 nm, fluorescence wavelength: 460 nm). The measured fluorescence intensity was converted into the thrombin concentration based on a standard curve constructed using a thrombin standard substance (Technothrombin TGA calibrator, purchased from Cosmo Bio Co., Ltd.). The thrombin generation in the plasma was expressed as a relative ratio (%) with respect to the thrombin generation in control plasma (Siemens control plasma N for blood coagulation test, purchased from SYSMEX CORPORATION).
To test inhibitory effect of the DOACs on thrombin generation, Test specimens were prepared by spiking rivaroxaban, apixaban, or edoxaban into plasma, and the thrombin generation in the plasma was assessed. […]

[3] = test system: blood coagulant activity (clotting time); experiment: Blood coagulation tests APTT and PT-INR in plasma after taking apixaban; type: in vivo, human; details: patients #004 and #005, after taking 10 mg apixaban
Description: The coagulant activity of each of the test plasma specimen was tested using APTT and PT-INR test methods as blood coagulation tests. In both methods, the coagulant activity was determined by measuring clotting time after adding the coagulation initiation reagent into plasma specimens.

[4] = test system: thrombin generation in control plasma; experiment: Thrombin generation test (TF/FXIa initiation reagent), DOACs spiked into control plasma; type: biochemical, human; details: DOAC added to control plasma at 18.5 ng/mL to 500 ng/mL; FIG. 2
Description: as §3
as §2, with “Ltd.).” for “Ltd.). The thrombin generation in the plasma was expressed as a relative ratio (%) with respect to the thrombin generation in control plasma (Siemens control plasma N for blood coagulation test, purchased from SYSMEX CORPORATION).”

Row | Compound | change in thrombin generation after taking apixaban [1] | effect of apixaban addition on thrombin generation in patient plasma ([2]; apixaban 125, 250 or 500 ng/mL, plasma of patients #001, #002, #003, 150 fM TF, 12.5 pM FXIa) | thrombin generation relative to control plasma ([2]; plasma of patient #003 after adding apixaban (125-500 ng/mL)) | thrombin generation relative to control plasma ([2]; plasma of patients #001 and #002 after adding apixaban (125-500 ng/mL)) | change in blood coagulant activities measured by APTT and PT-INR [3] | inhibitory effect on thrombin generation compared among the three DOACs [4]
1 | COc1ccc(-n2nc(C(N)=O)c3c2C(=O)N(c2ccc(N4CCCCC4=O)cc2)CC3)cc1 [apixaban] | decreased with increase in apixaban concentrations | suppressed thrombin generation in the plasma from the patient in a dose-dependent fashion | 25% | ≤ 5% | no significant alteration | –
2 | O=C(NC[C@H]1CN(c2ccc(N3CCOCC3=O)cc2)C(=O)O1)c1ccc(Cl)s1 [rivaroxaban] | – | – | – | – | – | strongest inhibitory effect
